Measured values reported in PMC9767854, “Discovery and mechanism studies of a novel ATG4B inhibitor Ebselen by drug repurposing and its anti-colorectal cancer effects in mice” (Cell & Bioscience, 2022).

Assays:
ATG4B C74S mutant = target: T1, ATG4B C74S mutant (Homo sapiens, UniProt Q9Y4P1, C74S); experiment: In vitro thermal shift assay, ATG4B C74S mutant; format: binding; conditions: C74S mutant 100 nM, Ebselen 1 μM, compared with DMSO
T1 construct: 6xHis; made in house; host or cells: E. coli BL21(DE3)
T1 sequence (Q9Y4P1 whole entry C74S): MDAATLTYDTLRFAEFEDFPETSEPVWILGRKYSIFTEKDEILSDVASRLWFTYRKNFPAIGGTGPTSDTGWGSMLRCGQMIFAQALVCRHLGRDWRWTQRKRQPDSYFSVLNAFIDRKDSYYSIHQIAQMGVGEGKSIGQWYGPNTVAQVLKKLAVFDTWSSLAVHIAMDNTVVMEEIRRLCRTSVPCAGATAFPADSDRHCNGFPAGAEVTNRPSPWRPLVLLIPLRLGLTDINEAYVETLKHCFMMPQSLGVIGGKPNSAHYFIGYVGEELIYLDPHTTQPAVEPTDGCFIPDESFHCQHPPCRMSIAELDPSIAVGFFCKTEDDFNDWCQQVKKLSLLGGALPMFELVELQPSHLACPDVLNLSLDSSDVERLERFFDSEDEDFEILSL
Protocol: (§1) For in vitro thermal shift assay, recombinant protein ATG4B or C74S mutant (100 nM) was incubated with Ebselen (1 μM) (DMSO as control) in the PCR tubes. The PCR instrument program was set at 25 °C for 10 min, 37 °C to 70 °C for 30 min and followed by cooling tubes for 5 min at room temperature. Then centrifuged at 12,000 rpm for 10 min at 4 °C, soluble fractions were separated from precipitates to be analyzed by SDS-PAGE and immunoblotting.

SW620 = experiment: Autophagy flux by LC3B-II western blot in SW620; format: cell-based; conditions: Ebselen 10 μM with CQ 40 μM
Protocol: (§2) Fig. 5 Ebselen suppresses autophagy flux via inhibition of ATG4B. A, B HeLa cells were treated with Torin 1 (2 μM) or CQ (40 μM) and detected by western blot. C, D SW620 cells were transduced with sgCon and sgATG4B lentiviruses, respectively. Then cells were treated with CQ (40 μM) and detected by western blot. E, F HCT116 were treated with Ebselen (5 and 10 μM) or CQ (40 μM) and subjected to western blot. G, H SW620 were treated with Ebselen (10 μM) or CQ (40 μM) and western blotting was carried out to detect the protein levels. I, J Immunofluorescence analysis of endogenous LC3B in HCT116 treated with Ebselen (10 μM) or CQ (40 μM). Dots numbers for LC3B were derived from counting at least 20 cells and 5 fields from three independent replicated experiments. Bar = 10 μm. K HCT116 cells were treated with 2 μM Torin 1 in the presence or absence of 10 μM Ebselen for 12 h, then the level ratio of long-lived proteins was measured by flow cytometry
Immunoblotting assay was performed reportedly previously. Commonly, cells were lysed in ice-cold RIPA lysis buffer (Beyotime, P0013B) supplemented with Pierce™ protease inhibitor tablet (ThermoFisher Scientific, A32965). […]

ATG4B KO HCT116 = experiment: Cell viability by CCK-8 assay, ATG4B KO HCT116; format: cell-based
Protocol: (§3) WT/ATG4B KO HCT116, WT/ATG4B KO SW620 and WT/ATG4B KO RKO cells were seeded in 96-well plate at 1000–1500 cells per well for cell viability assay, and seed in 6-well plate at 1 × 10^5 cells per well for cell number counting. After 12 h, the indicated drugs were added to the medium and cultured for another 96 h. Total viable cell numbers were counted by a cell counter (BioRAD), and cell viability was determined by cell-count-8 assay kit (CCK-8, Bimake, B34304) according to the manufacturer’s protocol.

[1] = target: T2, ATG4B (cell lysates from ATG4B-Flag 293 T) (Homo sapiens, UniProt Q9Y4P1); experiment: In vitro cleavage assay of LC3B-GST with ATG4B-overexpressing cell lysates; format: biochemical; conditions: compounds 10 μM, 30 min at 37 °C
T2 construct: expressed in transfected cells; host or cells: 293T (ATG4B-Flag 293 T line)
Protocol: A, B Cell lysates (1.5 μg) from ATG4B-Flag 293 T were incubated with different compounds (10 μM) for 30 min at 37 °C, then recombinant LC3B-GST (3 μg) were added up to 20 μl and inhibitions were detected by SDS-PAGE and CBB staining (A). B Statistical chart of gel results of three repeated experiments. Ebselen was abbreviated as Ebs, the same below. CON as control without lysate, NC as negative control without compound.

ATG4B [2] = target: T3, ATG4B (Homo sapiens, UniProt Q9Y4P1); experiment: Denaturing mass spectrometry of covalent binding; conditions: ATG4B 20 μM, compound 60 μM, 1 h at 37 °C; shift of 275 Da on 57,200 Da form
T3 construct: 6xHis; made in house; host or cells: E. coli BL21(DE3)
T3 sequence (Q9Y4P1 1-393): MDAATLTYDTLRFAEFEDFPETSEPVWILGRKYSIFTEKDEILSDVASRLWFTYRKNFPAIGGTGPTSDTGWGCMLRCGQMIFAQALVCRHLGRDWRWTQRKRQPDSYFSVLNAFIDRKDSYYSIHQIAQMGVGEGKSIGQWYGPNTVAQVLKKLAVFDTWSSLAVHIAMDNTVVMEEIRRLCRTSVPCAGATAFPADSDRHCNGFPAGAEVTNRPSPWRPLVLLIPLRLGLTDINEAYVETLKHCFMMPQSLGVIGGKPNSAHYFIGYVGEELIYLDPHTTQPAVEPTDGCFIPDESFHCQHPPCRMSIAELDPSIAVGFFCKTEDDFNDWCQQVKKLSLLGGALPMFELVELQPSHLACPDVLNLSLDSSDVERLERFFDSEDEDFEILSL
Protocol: Analysis of covalent binding between protein and ligand was performed by denaturing mass spectrometry. ATG4B WT and related mutant (20 μM) were incubated with or without compound (60 μM) in phosphate buffer for 1 h at 37℃. Then the samples were desalted using ultrafiltration spin columns (0.5 ml, 10 kDa MWCO, PES, Sartorius) and buffer-exchanged into Milli-Q water. Subsequently, samples were diluted containing 0.1% v/v formic acid before being subjected to denaturing electrospray ionization mass spectrometry analysis (TOF, Waters, SYNAPT G2-Si). Spectrum data were processed with MassLynx (Waters).

HCT116 = experiment: Immunofluorescence of endogenous LC3B dots; format: cell-based; conditions: Ebselen 10 μM, CQ 40 μM
Protocol: as §2
Immunofluorescence staining was carried out as described before. Respectively, cells seeded on glass-bottom 35-mm dishes (SORFA bio, 201,200) were washed with PBS and fixed for 20 min at room temperature with 4% paraformaldehyde after related administration. Subsequently, dishes were permeabilized with 0.3% Triton X-100 in PBS, and washed to be blocked in goat serum (Boster, AR1009) for 1 h before incubated with primary antibody overnight at 4℃. […]

WT HCT116 = experiment: Cell viability by CCK-8 assay, WT HCT116; format: cell-based
Protocol: as §3

ATG4B [3] = target: T3, ATG4B; experiment: In vitro thermal shift assay, ATG4B WT; format: binding; conditions: ATG4B 100 nM, Ebselen 1 μM, compared with DMSO
Protocol: as §1

[4] = Homo sapiens, HCT-116, CCK-8, 96 h

O=c1c2ccccc2[se]n1-c1ccccc1 [Ebselen]
thermal stability of C74S mutant (ATG4B C74S mutant): still a little increased
autophagic flux (LC3B-II) (SW620): inhibition of autophagic flux
effect on viability of ATG4B deficient cells (ATG4B KO HCT116; Fig. 6F): almost no effect
IC50 (ATG4B KO HCT116; [4]): 28.1 µM
cleavage activity of ATG4B on LC3B-GST in cell lysates [1]: strongly suppressed
covalent binding to ATG4B (ATG4B [2]): covalently binds to ATG4B
number of endogenous LC3B dots (HCT116): decreased
inhibition of the viability of CRC cell lines (WT HCT116; Fig. 6F): ~ 50%
IC50 (WT HCT116; [4]): 18.9 µM
thermal stability of wild type ATG4B (ATG4B [3]): strikingly improved
